Where a name gives a salt, the structure may show the parent alone.
What was measured:
[1] = Apparent LNP pKa by 2-(p-toluidino)-6-napthalene sulfonic acid (TNS) assay; format: physicochemical; details: pH at half of maximum fluorescence
[2] = Surface hydrophobicity by Generalized Polarization by Laurdan (GPL); format: physicochemical; details: normalized Generalized Polarization by Laurdan; higher N-GP = less polar surface
Excerpt: Nanoparticle compositions including a therapeutic and/or prophylactic can be optimized according to the selection of a compound according to Formula (I), (I-1), (A), (A-1), (A-1a), or (A-1b), the selection of additional lipids, the amount of each lipid in the lipid component, and the wt:wt ratio of the lipid component to the therapeutic and/or prophylactic. Nanoparticle compositions including DSPC as a phospholipid, cholesterol as a structural lipid, PEG 2 as a PEG lipid, and a compound according to Formula (I), (I-1), (A), (A-1), (A-1a), or (A-1b) were prepared. The ratios of the lipids were 50:10:38:2 mol % for the lipid according to Formula (I), (I-1), (A), (A-1), (A-1a), or (A-1b):DSPC:cholesterol:PEG 2.
Laurdan, a fluorescent aminonaphthalene ketone lipid, was post-inserted into the nanoparticle surface and the fluorescence spectrum of Laurdan was collected to determine the normalized Generalized Polarization (N-GP). Higher N-GP indicates a less polar surface.

[3] = Heparin-sepharose binding of nanoparticles
hEPO mRNA = assay: hEPO expression in CD1-mice after intravenous administration of nanoparticles; format: in vivo; details: 6 h after intravenous administration, mRNA dose 0.5 mg/kg, N:P 3.4, compound:DSPC:cholesterol:PEG 2 50:10:38:2
Experimental: The expression of hEPO mRNA in CD1-mice was measured 6 h after intravenous administration of nanoparticles comprising a compound of the disclosure, DSPC, cholesterol, and PEG 2 in a ratio of 50:10:38:2. […] Each composition was dosed to 8 animals at an mRNA dose of 0.5 mg/kg.

| Compound | LogIC50 (pKa) [1] | Average N-GP [2] | Relative % Area Bound by LNP [3] | Avg. [hEPO] mIU/mL (hEPO mRNA) |
| --- | --- | --- | --- | --- |
| CCCCCCCCC(CC)OC(=O)CCCCCCCN(CCCCCCCC(=O)OC(CCCCCCCC)CCCCCCCC)CCCNS(=O)(=O)Cc1ccccc1 (stereo not drawn) [Compound 74, Heptadecan-9-yl 8-((8-oxo-8-(undecan-3-yloxy)octyl)(3-((phenylmethyl)sulfonamido)propyl)amino)octanoate] | 6.42 | 0.938 | 6.14% | 1.21E+05 mIU/mL |
| CCCCCCCCC(CC)OC(=O)CCCCCCCN(CCCCCCCC(=O)OC(CCCCCCCC)CCCCCCCC)CCCNS(=O)(=O)c1ncccn1 (stereo not drawn) [Compound 73, Heptadecan-9-yl 8-((8-oxo-8-(undecan-3-yloxy)octyl)(3-(pyrimidine-2-sulfonamido)propyl)amino)octanoate] | 6.61 | 0.747 | 0% | 4.64E+05 mIU/mL |
| CCCCCCCCC(CC)OC(=O)CCCCCCCN(CCCCCCCC(=O)OC(CCCCCCCC)CCCCCCCC)CCCNC1=NS(=O)(=O)CCN1 (stereo not drawn) [Compound 77, Heptadecan-9-yl 8-((3-((1,1-dioxido-5,6-dihydro-4H-1,2,4-thiadiazin-3-yl)amino)propyl)(8-oxo-8-(undecan-3-yloxy)octyl)amino)octanoate] | 6.80 | 0.824 | 0% | 7.75E+04 mIU/mL |
| CCCCCCCCC(CC)OC(=O)CCCCCCCN(CCCCCCCC(=O)OC(CCCCCCCC)CCCCCCCC)CCCN/C=C1\NC(=O)NC1=O (mixture of isomers) [Compound 51/52, Heptadecan-9-yl (E/Z)-8-((3-(((2,5-dioxoimidazolidin-4-ylidene)methyl)amino)propyl)(8-oxo-8-(undecan-3-yloxy)octyl)amino)octanoate] | 6.48 | 0.921 | 2.25% | 1.86E+05 mIU/mL |
| CCCCCCCCC(CC)OC(=O)CCCCCCCN(CCCCCCCC(=O)OC(CCCCCCCC)CCCCCCCC)CCCNC(C(=O)NC)C(=O)NC (stereo not drawn) [Compound 16, Heptadecan-9-yl 8-((3-((1,3-bis(methylamino)-1,3-dioxopropan-2-yl)amino)propyl)(8-oxo-8-(undecan-3-yloxy)octyl)amino)octanoate Trifluoroacetate Salt] | 7.01 | 0.595 | 57.65% | 1.72E+05 mIU/mL |
| CCCCCCCCC(CC)OC(=O)CCCCCCCN(CCCCCCCC(=O)OC(CCCCCCCC)CCCCCCCC)CCCNS(=O)(=O)CC(=O)NC (stereo not drawn) [Compound 80, Heptadecan-9-yl 8-((3-((2-(methylamino)-2-oxoethyl)sulfonamido)propyl)(8-oxo-8-(undecan-3-yloxy)octyl)amino)octanoate] | 6.75 | 0.703 | 10.99% | 7.69E+04 mIU/mL |
| CCCCCCCCC(CC)OC(=O)CCCCCCCN(CCCCCCCC(=O)OC(CCCCCCCC)CCCCCCCC)CCCNS(=O)(=O)c1ccnn1COC (stereo not drawn) [Compound 75, Heptadecan-9-yl 8-((3-((1-(methoxymethyl)-1H-pyrazole)-5-sulfonamido)propyl)(8-oxo-8-(undecan-3-yloxy)octyl)amino)octanoate] | 6.50 | 0.831 | 1.97% | 6.24E+05 mIU/mL |

Continued, in another order:

| LogIC50 (pKa) [1] | Average N-GP [2] | Relative % Area Bound by LNP [3] | Compound | Avg. [hEPO] mIU/mL (hEPO mRNA) |
| --- | --- | --- | --- | --- |
| 7.46 | 0.869 | 0% | CCCCCCCCC(CC)OC(=O)CCCCCCCN(CCCCCCCC(=O)OC(CCCCCCCC)CCCCCCCC)CCCNc1nccnc1NC (stereo not drawn) [Compound 25, Heptadecan-9-yl 8-((3-((3-(methylamino)pyrazin-2-yl)amino)propyl)(8-oxo-8-(undecan-3-yloxy)octyl)amino)octanoate, trifluoroacetate Salt] | 4.29E+05 mIU/mL |
| 6.23 | 0.683 | 0% | CCCCCCCCC(CC)OC(=O)CCCCCCCN(CCCCCCCC(=O)OC(CCCCCCCC)CCCCCCCC)CCCNC1=NC(=O)NC1 (stereo not drawn) [Compound 79, Heptadecan-9-yl 8-((3-((2-oxo-2,5-dihydro-1H-imidazol-4-yl)amino)propyl)(8-oxo-8-(undecan-3-yloxy)octyl)amino)octanoate] | 4.04E+04 mIU/mL |
| 6.25 | 0.920 | 1.67% | CCCCCCCCC(CC)OC(=O)CCCCCCCN(CCCCCCCC(=O)OC(CCCCCCCC)CCCCCCCC)CCCNc1nnc(N)s1 (stereo not drawn) [Compound 82, Heptadecan-9-yl 8-((3-((5-amino-1,3,4-thiadiazol-2-yl)amino)propyl)(8-oxo-8-(undecan-3-yloxy)octyl)amino)octanoate Trifluoroacetate Salt] | 2.18E+05 mIU/mL |
| 6.92 | 0.683 | 31.61% | CCCCCCCCC(CC)OC(=O)CCCCCCCN(CCCCCCCC(=O)OC(CCCCCCCC)CCCCCCCC)CCCNC(=O)CS(=O)(=O)NC (stereo not drawn) [Compound 76, Heptadecan-9-yl 8-((3-(2-(N-methylsulfamoyl)acetamido)propyl)(8-oxo-8-(undecan-3-yloxy)octyl)amino)octanoate] | 1.50E+05 mIU/mL |
| 5.61 | – | 0% | CCCCCCCCC(CC)OC(=O)CCCCCCCN(CCCCCCCC(=O)OC(CCCCCCCC)CCCCCCCC)CCCN/C(=N/O)c1nonc1N (racemic) [Compound 55/56, Heptadecan-9-yl (E/Z)-8-((3-(4-amino-N′-hydroxy-1,2,5-oxadiazole-3-carboximidamido)propyl)(8-oxo-8-(undecan-3-yloxy)octyl)amino)octanoate] | 1.37E+05 mIU/mL |
| 6.94 | 0.622 | 36.14% | CCCCCCCCC(CC)OC(=O)CCCCCCCN(CCCCCCCC(=O)OC(CCCCCCCC)CCCCCCCC)CCCNC(=O)C1CCC(=O)N1 (stereo not drawn) [Compound 78, Heptadecan-9-yl 8-((8-oxo-8-(undecan-3-yloxy)octyl)(3-(5-oxopyrrolidine-2-carboxamido)propyl)amino)octanoate] | 1.11E+05 mIU/mL |
| 6.59 | 0.737 | 0% | CCCCCCCCC(CC)OC(=O)CCCCCCCN(CCCCCCCC(=O)OC(CCCCCCCC)CCCCCCCC)CCCN/C=N/S(C)(=O)=O (stereo not drawn) [Compound 86, Heptadecan-9-yl (E)-8-((3-(N′-(methylsulfonyl)formimidamido)propyl)(8-oxo-8-(undecan-3-yloxy)octyl)amino)octanoate] | – |
| 6.88 | – | – | CCCCCCCCC(CC)OC(=O)CCCCCCCN(CCCCCCCC(=O)OC(CCCCCCCC)CCCCCCCC)CCCNc1nnc(N)[nH]1 (stereo not drawn) [Compound 11, Heptadecan-9-yl 8-((3-((5-amino-4H-1,2,4-triazol-3-yl)amino)propyl)(8-oxo-8-(undecan-3-yloxy)octyl)amino)octanoate] | 1.69E+04 mIU/mL |
| 6.48 | 0.752 | 0% | CCCCCCCCC(CC)OC(=O)CCCCCCCN(CCCCCCCC(=O)OC(CCCCCCCC)CCCCCCCC)CCCNC1=C(C#N)C(=O)OC1 (stereo not drawn) [Compound 81, Heptadecan-9-yl 8-((3-((4-cyano-5-oxo-2,5-dihydrofuran-3-yl)amino)propyl)(8-oxo-8-(undecan-3-yloxy)octyl)amino)octanoate Trifluoroacetate Salt] | 4.96E+05 mIU/mL |

Reference: patent publication US20230000773A1, “NOVEL HEADGROUP LIPID COMPOUNDS AND COMPOSITIONS FOR INTRACELLULAR DELIVERY OF THERAPEUTIC AGENTS” (ModernaTX, Inc., priority 2019, published 2023)
